Laboratory results: patent US9682082B2, “Combinations of AKT and MEK inhibitor compounds, and methods of use” (GENENTECH, INC., priority 2011, dated 2017)

What was measured:
[1] = system: A2058 (PTEN null/Braf mutant) melanoma model; assay: A2058 melanoma xenograft model, tumor growth inhibition; format: in vivo
Method: Methods of measuring TGI are known in the art. In one example method, average tumor volumes are determined and compared from the patient before and after treatment. Tumor volumes can be measured in two dimensions (length and width) using any method in the art, for example UltraCal IV calipers (Fred V. Fowler Company) or by PET (positron emission tomography), or by some other method. The formula tumor volume (mm^3)=(length×width^2)×0.5 can be used. Measuring tumor volumes over multiple time periods can be done using a mixed-modeling Linear Mixed Effects (LME) approach (Pinheiro et al. 2009). This approach can address both repeated measurements (and multiple patients). Cubic regression splines can be used to fit a non-linear profile to the time courses of tumor volume at each dose level. These non-linear profiles can then be related to dose within the mixed model. Tumor growth inhibition as a percent of vehicle can be calculated as a percent area under the fitted curve (AUC) per day in relation to the vehicle, using the following formula:
[formula] Using this formula, a TGI value of 100% indicates tumor stasis, greater than about 1% but less than about 100% indicates tumor growth inhibition, and greater than about 100% indicates tumor regression. Preparation of a Compound of Formula I
The efficacy of representative combinations of the invention were measured in vivo by implanting allografts or xenografts of cancer cells in rodents and treating the tumor-bearing animals with the combinations. Variable results are to be expected depending on the cell line, the presence or absence of certain mutations in the tumor cells, the sequence of administration the compounds, dosing regimen, and other factors. Subject mice were treated with drug(s) or control (Vehicle) and monitored over several weeks or more to measure the time to tumor doubling, log cell kill, and tumor inhibition.

MALME3M cells = assay: Cell viability assay (CellTiter-Glo), MALME3M; format: cell-based, human; details: MALME3M B-RAF V600E metastatic melanoma cell line
Method: (§1) Cells were plated in black, clear-bottomed 384-well plates (Catalog 353962; Becton Dickinson; Franklin Lakes, N.J.) at a density of 1500 cells/well and incubated overnight to 1.5 days at 37° C., 5% CO2. Serial dilutions of GDC-0068, GDC-0973, or both in combination were then added to the cells and incubated for another 96 hours. Cell viability was determined by measuring the cellular adenosine triphosphate (ATP) levels as described in the manufacturer's protocol (CellTiter-Glo Luminescent Cell Viability Assay kit; Catalog G7573; Promega, Madison, Wis.). Luminescence signal was recorded on an EnVision 2101 Multilabel Reader (PerkinElmer; Waltham, Mass.).
(§2) Percentage inhibition was calculated by dividing the relative light unit (RLU) of cells exposed to the GDC-0068 and GCD-0973 combination to the RLU of cells exposed to DMSO and subtracting it from 1, as expressed below: % inhibition=1−(RLUcombination/RLUDMSO)
(§3) BLISS analysis compared the expected % inhibition (E=EGDC-0068+EGDC-0973−EGDC-0068×EGDC-0973) with the experimentally observed % inhibition, EOBS. The BLISS score is the difference (ΔE=EOBS−E) between the expected % inhibition, E, and the experimentally observed inhibition, EOBS.

MALME3 cells = assay: Cell viability assay (CellTiter-Glo), MALME3; format: cell-based, human; details: MALME3 normal skin fibroblasts
Method: as §1, §2, §3

SMILES	single agent tumor growth inhibition (TGI) ([1]; 50 mg/kg of GDC-0068)	single agent tumor growth inhibition (TGI) ([1]; higher doses of GDC-0068 (75 and 100 mg/kg))	single agent effect on cell viability (MALME3M cells)	single agent effect on cell viability (MALME3 cells)	single agent tumor growth inhibition (TGI) ([1]; all doses of GDC-0973)
CC(C)NC[C@@H](C(=O)N1CCN(c2ncnc3c2[C@H](C)C[C@H]3O)CC1)c1ccc(Cl)cc1 [GDC-0068, (S)-2-(4-chlorophenyl)-1-(4-((5R,7R)-7-hydroxy-5-methyl-6,7-dihydro-5H-cyclopenta[d]pyrimidin-4-yl)piperazin-1-yl)-3-(isopropylamino)propan-1-one]	No TGI	Comparable single agent tumor growth inhibition (TGI)	lack of single agent activity		
O=C(c1ccc(F)c(F)c1Nc1ccc(I)cc1F)N1CC(O)([C@@H]2CCCCN2)C1 [GDC-0973, (S)-(3,4-difluoro-2-(2-fluoro-4-iodophenylamino)phenyl)(3-hydroxy-3-(piperidin-2-yl)azetidin-1-yl)methanone]			sensitivity	resistant	Comparable single agent tumor growth inhibition (TGI)
